Data taken from ChEMBL document CHEMBL1147151, “In vitro optimization of non-small cell lung cancer activity with troxacitabine, L-1,3-dioxolane-cytidine, prodrugs” (J Med Chem, 2007).

Assays:
[1] = system: SW1573; assay: Cytotoxicity against SW1573 cells after 72 hrs by SRB assay; type: functional, cell-based; settings: Homo sapiens, SW1573, 72 h
[2] = system: A549; assay: Cytotoxicity against A549 cells after 72 hrs by SRB assay; type: functional, cell-based; settings: Homo sapiens, A549, 72 h

Structure (SMILES): O=C(Nc1ccn([C@@H]2CO[C@H](CO)O2)c(=O)n1)c1ccc(F)cc1
- IC50 [1]: 15.3 µM
- IC50 [2]: 8.67 µM

Structure (SMILES): CCCCCCCCCCCCCCCC(=O)Nc1ccn([C@@H]2CO[C@H](CO)O2)c(=O)n1
- IC50 [1]: 0.02 µM
- IC50 [2]: 0.004 µM

Structure (SMILES): O=C(Nc1ccn([C@@H]2CO[C@H](CO)O2)c(=O)n1)c1ccc(Cl)cc1
- IC50 [1]: 2.77 µM
- IC50 [2]: 0.41 µM

Structure (SMILES): CCCC(=O)Nc1ccn([C@@H]2CO[C@H](CO)O2)c(=O)n1
- IC50 [1]: 8.07 µM
- IC50 [2]: 6.6 µM

Structure (SMILES): CCCCCCCCCCCC(=O)Nc1ccn([C@@H]2CO[C@H](CO)O2)c(=O)n1
- IC50 [1]: 0.03 µM
- IC50 [2]: 0.015 µM

Structure (SMILES): CCCCCCCCC(=O)Nc1ccn([C@@H]2CO[C@H](CO)O2)c(=O)n1
- IC50 [1]: 0.276 µM
- IC50 [2]: 0.046 µM

Structure (SMILES): CC(=O)Nc1ccn([C@@H]2CO[C@H](CO)O2)c(=O)n1
- IC50 [1]: 10.7 µM
- IC50 [2]: 6.87 µM

Structure (SMILES): CCCCCCCCCCCCCCCCCCCCCC(=O)Nc1ccn([C@@H]2CO[C@H](CO)O2)c(=O)n1
- IC50 [1]: 0.9 µM
- IC50 [2]: 0.5 µM

Structure (SMILES): CCCCCCC(=O)Nc1ccn([C@@H]2CO[C@H](CO)O2)c(=O)n1
- IC50 [1]: 2.4 µM
- IC50 [2]: 1.04 µM

Structure (SMILES): CCCCC(=O)Nc1ccn([C@@H]2CO[C@H](CO)O2)c(=O)n1
- IC50 [1]: 9.13 µM
- IC50 [2]: 5.23 µM

Structure (SMILES): O=C(Nc1ccn([C@@H]2CO[C@H](CO)O2)c(=O)n1)c1ccc(Br)cc1
- IC50 [1]: 8.87 µM
- IC50 [2]: 4.53 µM

Structure (SMILES): CCCCCCCCCCCCCCCCCC(=O)Nc1ccn([C@@H]2CO[C@H](CO)O2)c(=O)n1
- IC50 [1]: 0.125 µM
- IC50 [2]: 0.025 µM

Structure (SMILES): Nc1ccn([C@@H]2O[C@H](CO)[C@@H](O)C2(F)F)c(=O)n1 [GEMCITABINE]
- IC50 [1]: 8.3 µM
- IC50 [2]: 13.1 µM

Structure (SMILES): O=C(Nc1ccn([C@@H]2CO[C@H](CO)O2)c(=O)n1)c1ccccc1
- IC50 [1]: 13.7 µM
- IC50 [2]: 8.53 µM

Structure (SMILES): COc1ccc(C(=O)Nc2ccn([C@@H]3CO[C@H](CO)O3)c(=O)n2)cc1
- IC50 [1]: 10 µM
- IC50 [2]: 3.5 µM

Structure (SMILES): CCCCCCCCCCCCCCCCCCCC(=O)Nc1ccn([C@@H]2CO[C@H](CO)O2)c(=O)n1
- IC50 [1]: 0.15 µM
- IC50 [2]: 0.03 µM

Structure (SMILES): O=C(Nc1ccn([C@@H]2CO[C@H](CO)O2)c(=O)n1)C1CCCCC1
- IC50 [1]: 14 µM
- IC50 [2]: 7.37 µM

Structure (SMILES): O=C(Nc1ccn([C@@H]2CO[C@H](CO)O2)c(=O)n1)c1ccc(Cl)cc1Cl
- IC50 [1]: 14.3 µM
- IC50 [2]: 9.83 µM

Structure (SMILES): CCCCCCCCCC(=O)Nc1ccn([C@@H]2CO[C@H](CO)O2)c(=O)n1
- IC50 [1]: 0.04 µM
- IC50 [2]: 0.024 µM

Structure (SMILES): Nc1ccn([C@@H]2CO[C@H](CO)O2)c(=O)n1 [TROXACITABINE]
- IC50 [1]: 2.3 µM
- IC50 [2]: 0.68 µM

Structure (SMILES): O=C(Nc1ccn([C@@H]2CO[C@H](CO)O2)c(=O)n1)C1CC1
- IC50 [1]: 22 µM
- IC50 [2]: 18.7 µM

Structure (SMILES): O=C(Nc1ccn([C@@H]2CO[C@H](CO)O2)c(=O)n1)C1CCCC1
- IC50 [1]: 8.8 µM
- IC50 [2]: 2.97 µM
